Data on 22 molecules can be found in US11542255B2, “Sulfonylureas and sulfonylthioureas as NLRP3 inhibitors” (Inflazome Limited, priority 2017, dated 2023).

For data set [1], the target named is T1, NLRP3 (Homo sapiens, UniProt Q96P20). The experiment in a line: Human whole blood IL1β release assay (LPS + nigericin, AlphaLisa IL-1β). The format is cell-based. Set-up: Human whole blood in Li-heparin tubes was obtained from healthy donors from a volunteer donor panel; from tissue; host or cells: human whole blood from healthy donors. The following applies: NLRP3 inhibitory activity, 1 μg/ml LPS, 10 μM nigericin, IL-1β release, read-out: HWB IC50. Summed up: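 Donor human whole blood (Li-heparin) was primed with 1 μg/mL LPS while incubated with compound (8-point half-log, 10 μM top, 0.1% DMSO) for 3 h at 37° C., then stimulated with 10 μM nigericin for 1 h. Supernatant IL-1β measured by AlphaLISA; IC50 from 4-parameter nonlinear fit.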
T1 sequence (Q96P20 whole entry): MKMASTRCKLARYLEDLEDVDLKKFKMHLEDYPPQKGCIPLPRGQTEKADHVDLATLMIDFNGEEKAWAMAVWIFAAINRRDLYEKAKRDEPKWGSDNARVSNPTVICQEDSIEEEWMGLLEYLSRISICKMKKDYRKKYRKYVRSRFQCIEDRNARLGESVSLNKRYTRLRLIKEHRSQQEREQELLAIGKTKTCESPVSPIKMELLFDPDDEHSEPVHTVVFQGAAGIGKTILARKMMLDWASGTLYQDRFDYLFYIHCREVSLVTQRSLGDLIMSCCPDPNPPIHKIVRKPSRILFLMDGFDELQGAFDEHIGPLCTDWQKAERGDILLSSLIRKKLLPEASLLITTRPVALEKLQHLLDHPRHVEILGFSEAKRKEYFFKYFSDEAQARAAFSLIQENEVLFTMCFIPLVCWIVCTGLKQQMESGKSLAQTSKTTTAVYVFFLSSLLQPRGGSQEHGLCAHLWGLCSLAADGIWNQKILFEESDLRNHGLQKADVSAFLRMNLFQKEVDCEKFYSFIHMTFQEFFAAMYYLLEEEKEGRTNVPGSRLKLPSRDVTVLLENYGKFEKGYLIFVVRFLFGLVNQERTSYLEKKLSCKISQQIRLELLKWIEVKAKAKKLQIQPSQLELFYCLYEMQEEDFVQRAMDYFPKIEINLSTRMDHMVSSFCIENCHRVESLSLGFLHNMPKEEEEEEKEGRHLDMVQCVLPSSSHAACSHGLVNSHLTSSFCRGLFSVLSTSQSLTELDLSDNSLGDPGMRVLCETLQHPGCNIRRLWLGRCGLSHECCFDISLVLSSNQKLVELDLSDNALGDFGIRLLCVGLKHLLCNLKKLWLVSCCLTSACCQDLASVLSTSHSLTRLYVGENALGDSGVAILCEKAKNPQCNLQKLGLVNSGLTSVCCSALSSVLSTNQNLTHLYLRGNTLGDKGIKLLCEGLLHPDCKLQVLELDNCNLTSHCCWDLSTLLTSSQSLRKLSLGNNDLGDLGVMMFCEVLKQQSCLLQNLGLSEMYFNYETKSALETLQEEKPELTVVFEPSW

Data set [2] in a line: PK protocol, intravenous administration. The format is in vivo, male Sprague Dawley rats. The following applies: male, Sprague Dawley, rat, plasma, dose (mg/kg); for Vd: read-out: Vdss. As to the method: Pharmacokinetic parameters were determined in male Sprague Dawley rats (Charles River, UK, 250-350 g; or Vital River Laboratory Animal Technology Co Ltd, Beijing, China, 7-9 weeks old). Animals were individually housed during the study and maintained under a 12 h light/dark cycle. Animals had free access to food and water except that some orally dosed animals were food deprived overnight prior to the study.
For intravenous administration, compounds were formulated as a solution in water or […] in 2 mL/kg dosing volume and administered via tail vein. For oral administration, compounds were formulated as a solution in water or DMSO:water [10:90] in 5 mL/kg dosing volume and administered orally.
Serial blood samples (about 120-300 μL) were taken from each animal at each of 8 time-points post dose (0.083, 0.25, 0.5, 1, 2, 4, 8 and 24 h) or at each of 12 time-points post dose (0.03, 0.1, 0.17, 0.25, 0.5, 1, 2, 4, 6, 8, 12 and 24 h) or pre-dose and at each of 9 time-points post dose (0.25, 0.5, 1, 2, 4, 6, 8, 12 and 24 h). Samples were held on ice for no longer than 30 minutes before centrifugation (10,000 rpm (8,385 g) for 3 minutes; or 5,696 rpm (3,0009 for 15 minutes) for plasma generation. Plasma was frozen on dry ice prior to boanalysis. PK parameters were generated from LC-MS/MS data using Dotmatics or Phoenix WinNonlin 6.3 software.

Data set [3] concerns the target T1, NLRP3. Nature of the data set: THP-1 cells pyroptosis assay (LPS + nigericin, resazurin readout). The format is cell-based. Also on record: Seed THP-1 cells (25,000 cells/well) containing 1.0 μg/ml LPS in 40 μl of RPMI medium; host or cells: THP-1 cells. Conditions: NLRP3 inhibitory activity, 1.0 μg/ml LPS, 5 μM nigericin. Summed up:
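LPS-primed (1 μg/ml) THP-1 cells, 25,000/well in serum-free RPMI, given compound (8-point half-log, 10 μM top; 0.1% DMSO) for 3 h at 37 °C, then nigericin 5 μM for 1 h. Viability by resazurin (100 μM, 1-2 h), Ex 560/Em 590 nm; IC50 from 4-parameter variable-slope fit.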

Structures can show the parent of a compound that is named as a salt. A value given as a limit tells only on which side of the number the result lay.

In the case of `CC(c1cc(S(=O)(=O)NC(=O)Nc2c3c(cc4c2CCC4)CCC3)nn1C)N1CCC1` (single isomer, unassigned; enantiomer 2) [Example 27, 5-(1-(Azetidin-1-yl)ethyl)-N-((1,2,3,5,6,7-hexahydro-s-indacen-4-yl)carbamoyl)-1-methyl-1H-pyrazole-3-sulfonamide, Sodium Salt (Enantiomer 2)], at NLRP3 [1], the IC50 was < 0.4 µM. Also, in data set [2], the AUC came to 3.9 µg·h/mL, the clearance was determined as 0.258 L/h/kg, the half-life was 1.1 h and the Vd worked out at 0.33 L/kg. For the same molecule, at NLRP3 [3], the IC50 was in the range of 0.04 to 0.16 µM.

`CCC(c1cc(S(=O)(=O)NC(=O)Nc2c3c(cc4c2CCC4)CCC3)nn1C)N(C)C` (single isomer, unassigned; enantiomer 2) [Example 72, 5-(1-(Dimethylamino)propyl)-N-((1,2,3,5,6,7-hexahydro-s-indacen-4-yl)carbamoyl)-1-methyl-1H-pyrazole-3-sulfonamide, Enantiomer 2]: on NLRP3 [1], the IC50 was < 0.4 µM. Besides, in data set [2], the AUC is 2.78 µg·h/mL, the clearance stood at 0.51 L/h/kg, the half-life is 2.4 h and the Vd was 0.51 L/kg. Further, the concentration for half-maximal inhibition (IC50) at NLRP3 [3] is < 0.04 µM.

`CN(C)CCn1nc(S(=O)(=O)NC(=O)Nc2c3c(cc4c2CCC4)CCC3)cc1CN(C)C` [Example 3, 1-(2-(Dimethylamino)ethyl)-5-((dimethylamino)methyl)-N-((1,2,3,5,6,7-hexahydro-s-indacen-4-yl)carbamoyl)-1H-pyrazole-3-sulfonamide]: the IC50 on NLRP3 [1] was < 0.4 µM. Moreover, in data set [2], the AUC was 1.13 µg·h/mL, the clearance worked out at 2.22 L/h/kg, the half-life was 1.3 h and the Vd came out at 1.32 L/kg. Also, at NLRP3 [3], the IC50 is < 0.04 µM.

As for `COCCN(C)Cc1cc(S(=O)(=O)NC(=O)Nc2c3c(cc4c2CCC4)CCC3)nn1C` [Example 119, N-((1,2,3,5,6,7-Hexahydro-s-indacen-4-yl)carbamoyl)-5-(((2-methoxyethyl)(methyl)amino)methyl)-1-methyl-1H-pyrazole-3-sulfonamide, Sodium Salt], the IC50 lay within 1.6 to 3.2 µM at NLRP3 [1] and 0.16 to 0.64 µM at NLRP3 [3].

With `CC(C)c1cc(F)cc(C2CCOCC2)c1NC(=O)NS(=O)(=O)c1cc(C(=O)N(C)C)n(C)n1` [Example 126, 3-(N-((4-Fluoro-2-isopropyl-6-(tetrahydro-2H-pyran-4-yl)phenyl)carbamoyl)sulfamoyl)-N,N,1-trimethyl-1H-pyrazole-5-carboxamide, Sodium Salt], the results for the IC50 at NLRP3 [1] and on NLRP3 [3] were 0.4 to 0.8 µM and 0.64 to 2.56 µM, respectively.

In the case of `CC(C)c1cc(F)cc(-c2cnn(C)c2)c1NC(=O)NS(=O)(=O)c1cc(C(=O)N(C)C)n(C)n1` [Example 128, 3-(N-((4-Fluoro-2-isopropyl-6-(1-methyl-1H-pyrazol-4-yl)phenyl)carbamoyl)sulfamoyl)-N,N,1-trimethyl-1H-pyrazole-5-carboxamide, Sodium Salt], the half-maximal inhibitory concentration (IC50) on NLRP3 [1] is < 0.4 µM; at NLRP3 [3], 0.64 to 2.56 µM.

For the molecule `CC(C)c1cc(F)cc(-c2cccnc2)c1NC(=O)NS(=O)(=O)c1cc(C(=O)N(C)C)n(C)n1` [Example 134, 3-(N-((4-Fluoro-2-isopropyl-6-(pyridin-3-yl)phenyl)carbamoyl)sulfamoyl)-N,N,1-trimethyl-1H-pyrazole-5-carboxamide, sodium Salt], the IC50 on NLRP3 [1] was < 0.4 µM; on NLRP3 [3] it was 0.04 to 0.16 µM.

In the case of `CC(C)c1cc(F)cc(-c2cncnc2)c1NC(=O)NS(=O)(=O)c1cc(C(=O)N(C)C)n(C)n1` [Example 135, 3-(N-((4-Fluoro-2-isopropyl-6-(pyrimidin-5-yl)phenyl)carbamoyl)sulfamoyl)-N,N,1-trimethyl-1H-pyrazole-5-carboxamide, sodium Salt], the IC50 is < 0.4 µM on NLRP3 [1] and 0.16 to 0.64 µM on NLRP3 [3].

As to `CCn1nc(S(=O)(=O)NC(=O)Nc2c(-c3cccc(C#N)c3)ccc3c2CCC3)cc1CN(C)C` [Example 173], the IC50 on NLRP3 [1] fell in the range of 0.4 to 0.8 µM; on NLRP3 [3], 0.04 to 0.16 µM.

Take `COCCN(CCOC)C(=O)c1cc(S(=O)(=O)NC(=O)Nc2c(-c3ccnc(OC(C)C)c3)cc(F)cc2C(C)C)nn1C` [Example 174, 3-(N-((4-Fluoro-2-(2-isopropoxypyridin-4-yl)-6-isopropyl-phenyl)carbamoyl)sulfamoyl)-N,N-bis(2-methoxyethyl)-1-methyl-1H-pyrazole-5-carboxamide, sodium salt]: the IC50 was in the range of 3.2 to 10 µM on NLRP3 [1] and 2.56 to 10 µM at NLRP3 [3].

With `COCCN(CCOC)C(=O)c1cc(S(=O)(=O)NC(=O)Nc2c(-c3ccnc(OC)c3)ccc3c2CCC3)nn1C` [Example 175, N,N-Bis(2-methoxyethyl)-3-(N-((5-(2-methoxypyridin-4-yl)-2,3-dihydro-1H-inden-4-yl)carbamoyl)sulfamoyl)-1-methyl-1H-pyrazole-5-carboxamide, Sodium Salt], the results for the IC50 at NLRP3 [1] and on NLRP3 [3] were < 0.4 µM and 0.16 to 0.64 µM, respectively.

Consider `CC(C)Oc1cc(-c2cc(F)cc(C(C)C)c2NC(=O)NS(=O)(=O)c2cc(C(=O)N(C)C)n(C)n2)ccn1` [Example 176, 3-(N-((4-Fluoro-2-(2-isopropoxypyridin-4-yl)-6-isopropyl-phenyl)carbamoyl)sulfamoyl)-N,N,1-trimethyl-1H-pyrazole-5-carboxamide, sodium salt], for which the IC50 on NLRP3 [1] lay in the range of 1.6 to 3.2 µM; on NLRP3 [3], 0.16 to 0.64 µM.

Regarding `COc1cc(-c2ccc3c(c2NC(=O)NS(=O)(=O)c2cc(C(=O)N(C)C)n(C)n2)CCC3)ccn1` [Example 177, 3-(N-((5-(2-Methoxypyridin-4-yl)-2,3-dihydro-1H-inden-4-yl)carbamoyl)sulfamoyl)-N,N,1-trimethyl-1H-pyrazole-5-carboxamide, sodium Salt], the values for the IC50 on NLRP3 [1] and on NLRP3 [3] were < 0.4 µM and < 0.04 µM, respectively.

Regarding `CNCc1cc(S(=O)(=O)NC(=O)Nc2c(-c3ccnc(OC)c3)ccc3c2CCC3)nn1C1CC1` [Example 178], the IC50 on NLRP3 [1] is < 0.4 µM; at NLRP3 [3], 0.04 to 0.16 µM.

Turning to `COc1cc(-c2ccc3c(c2NC(=O)NS(=O)(=O)c2cc(C4CCCN4C)n(C(C)C)n2)CCC3)ccn1` (centres unmarked) [Example 179], the half-maximal inhibitory concentration (IC50) on NLRP3 [1] was 0.8 to 1.6 µM; on NLRP3 [3] it was 0.04 to 0.16 µM.

Consider `CCC(c1cc(S(=O)(=O)NC(=O)Nc2c(-c3ccnc(OC)c3)ccc3c2CCC3)nn1C(C)C)N(C)C` (centres unmarked) [Example 180], for which the IC50 on NLRP3 [1] was < 0.4 µM; at NLRP3 [3], 0.04 to 0.16 µM.

Consider `COc1cc(-c2ccc3c(c2NC(=O)NS(=O)(=O)c2cc(CN(C)C)n(C(C)C)n2)CCC3)ccn1` [Example 181], for which the IC50 at NLRP3 [1] was < 0.4 µM; at NLRP3 [3], < 0.04 µM.

For the molecule `CNCc1cc(S(=O)(=O)NC(=O)Nc2c3c(cc4c2CCC4)CCC3)nn1C1CC1` [Example 183], the IC50 was 0.4 to 0.8 µM at NLRP3 [1] and 0.04 to 0.16 µM at NLRP3 [3].

Take `CCn1nc(S(=O)(=O)NC(=O)Nc2c3c(cc4c2CCO4)CCC3)cc1CN(C)C` [Example 184]: the IC50 is 0.4 to 0.8 µM at NLRP3 [1] and < 0.04 µM at NLRP3 [3].

For `CCn1nc(S(=O)(=O)NC(=O)Nc2c3c(cc4c2OCC4)CCC3)cc1CN(C)C` [Example 185], the figures for the IC50 at NLRP3 [1] and at NLRP3 [3] were 1.6 to 3.2 µM and 0.16 to 0.64 µM, respectively.

As to `CC(C)n1nc(S(=O)(=O)NC(=O)Nc2c3c(cc4c2CCC4)CCC3)cc1C1CCCN1C` (centres unmarked) [Example 186], the IC50 on NLRP3 [1] is 0.4 to 0.8 µM; on NLRP3 [3], < 0.04 µM.

In the case of `CC(C)n1nc(S(=O)(=O)NC(=O)Nc2c3c(cc4c2CCC4)CCC3)nc1CN(C)C` [Example 187], the IC50 on NLRP3 [1] was 0.8 to 1.6 µM; at NLRP3 [3], < 0.04 µM.
